Experimental data as given in publication PMC10518255, “A first-in-class pan-lysyl oxidase inhibitor impairs stromal remodeling and enhances gemcitabine response and survival in pancreatic cancer” (Nature Cancer, 2023).
Values joined by “and” are separate entries in the source; they are usually repeats but may differ in a detail not shown here. Equal values may be shown once.

Legend:
[1] = tested on: TKCC10 human PDX tumors; test: TKCC10 human model survival study (Extended Data Fig. 5k); type: in vivo, mouse
Method: Subcutaneous PDX studies were performed by implanting early passage PDX pieces (~4 mm^3) or TKCC10 CCs (1.5 × 10^6 cells per mouse in 100 μl PBS/Matrigel 1:1) into female (PDX) or male (TKCC10) 8-week-old immunocompromised nude Balb/c-Fox1nuAusb mice subcutaneously on the left flank. For the duration of the study, mice were kept in conventional caging with environmental enrichment, access to standard chow, water ad libitum and 12-h light–dark cycle at ambient temperature and humidity. […] Tumor size was monitored every second day by calipers. Tumor volume was calculated using the formula (length × width^2)/2. […]
Extended Data Fig. 5 PXS-5505 in combination with gemcitabine in vivo. a. […] Signal is defined as the enzyme activity in the aorta, while noise is measured in the presence of a high concentration (300 µM) BAPN to abolish any lysyl oxidase family activity. […] FITC-dextran (molecular weight: 10 kDa) signal quantification from KPC tumor end point from each treatment group (vehicle n = 3 biologically independent animals, PXS-5505 n = 5 biologically independent animals, Gem n = 5 biologically independent animals, PXS-5505 + Gem n = 5 biologically independent animals). […] P-values determined by Welchs t-test. […] Quantification of red birefringent (mature) collagen fibers from human PDXs at end point after 3 cycles of treatment, treated as indicated. […]

[2] = tested on: CD31; test: Immunohistochemistry of end-point KPC tumors: tumor vasculature; type: in vivo, mouse; conditions: for Quantification of tumour vasculature (CD31 positive staining): Extended Data 6E, KPC tumours at endpoint, individual FOV
Method: All tissues or matrices, including patient TMAs, were fixed in 10% buffered formalin and embedded in paraffin. The 4-μm sections of samples were deparaffinized with xylene and rehydrated in graded ethanol washes. For immunohistochemistry, Bond Dewax Solution (AR9222) was used. Antigen retrieval was performed using Bond RX H2(30) protocol: HIER 30 min ER1 (citrate pH 6) OR ER2 (EDTA pH 9) at 100 °C. Slides were quenched in BOND Polymer Refine Detection (Leica Biosystems DS9800). […] Slides were digitized on an Aperio slide scanner and representative areas per tumor acquired and analyzed by researchers blinded to the conditions of the experiment.
Extended Data Fig. 6 PXS-5505 in combination with gemcitabine in a KPC model. a. Quantification of proliferating cells (Ki67 positive nuclear staining) in KPC tumors at end point, treated as indicated. 5 fields of view (500 μm × 500 μm) per mouse and 10 mice per cohort were scored. […] Quantification of percent coverage of αSMA positive staining in KPC tumors at end point, treated as indicated. 3 fields of view (1000 μm × 1000 μm) per mouse and 10 mice per cohort were scored. […] Quantification of percent coverage of PDGFR-ß positive staining in KPC tumors at end point, treated as indicated. 3 fields of view (1000 μm × 1000 μm) per mouse and 10 mice per cohort were scored. […] Quantification of pMLC2 positive staining in stromal regions of KPC tumors at end point, treated as indicated. 3 fields of view (500 μm × 500 μm) per mouse and 10 mice per cohort were scored. […] Quantification of tumor vasculature (CD31 positive staining) in KPC tumors at end point, treated as indicated. 3 fields of view (1000 μm × 1000 μm) per mouse and 10 mice per cohort were scored. […] Quantification of STAT3 activation (pSTAT3 positive nuclear staining) in KPC tumors at end point, treated as indicated. 3 fields of view (1000 μm × 1000 μm) per mouse and 5 mice per cohort were scored. […] Scale bars = 100 μm. g Quantification of macrophage infiltration (F4/80 positive staining) in KPC tumors at end point, treated as indicated. […]

Row | SMILES | median survival (time under treatment after tumor reached 50 mm^3) [1] | Quantification of tumour vasculature (CD31 positive staining) [2] | CD31 positivity ([2]; KPC tumors at end point)
1 | Nc1ccn([C@@H]2O[C@H](CO)[C@@H](O)C2(F)F)c(=O)n1 [Gem, gemcitabine] | 29 days | 0.7299 and 0.7671 and 1.094 and 0.1238 and 0.9491 and 1.4885 and 2.0289 and 0.3988 and 1.306 and 1.1528 and 0.8514 and 0.5685 and 1.3159 and 1.5073 and 0.7452 and 2.699 and 3.9605 and 1.2028 and 1.6599 and 0.7292 and 1.2066 and 0.7182 and 1.9396 and 0.8792 and 0.4356 and 0.528 and 0.6666 and 0.9682 and 1.0035 and 1.0817 | moderately reduce CD31 positivity
2 | Cl.Cl.NC/C=C(\F)CS(=O)(=O)c1cccc2cccnc12.O [PXS-5505, (Z)-3-fluoro-4-(quinolin-8-ylsulfonyl)but-2-en-1-amine dihydrochloride monohydrate] | 16 days | 1.4669 and 1.052 and 0.7167 and 1.5204 and 1.7208 and 1.2357 and 2.5692 and 2.5978 and 2.6637 and 1.5089 and 2.7227 and 2.2335 and 3.0895 and 2.1825 and 1.7906 and 0.381 and 0.3483 and 0.8882 and 1.0908 and 1.998 and 0.3729 and 1.0662 and 0.7486 and 0.544 and 1.3597 and 1.732 and 1.5892 and 0.9619 and 1.2706 and 1.8307 | –
